Read-outs that look alike come from different tables or passages of the source.
How the values were obtained:
[1] = for Leaching of EDDS, specimen with end sealing / Leaching of EDDS, specimen without end sealing: after one week, mean ± SD
Text: The aim of this example is to show the leaching of EDDS in sea water, as well as the effect of the pH in sea water on the leaching.
Wood specimens were produced by the Danish Technological Institute, and made of sap wood of Pinus sylvestris in the dimension: 15×25×50 mm^3.
The impregnating solution used was an aqueous solution of 5% Octaquest® E30 (Innospec Limited, contains a 30% solution of trisodium-EDDS in water), 5% sodium carbonate and 5% ethanol. pH was adjusted to 4.5 with hydrochloric acid.
Three different sea water solutions were prepared using artificial sea water salt mix (Tropic Marin® Sea Salt) at half the recommended concentration (15 g/L corresponding to a specific gravity of 1010 kg/m^3), normal concentration (30 g/L corresponding to a specific gravity of 1019 kg/m^3) and half concentration with pH adjusted to 6. Specific gravity of sea water in the oceans range between 1020 and 1030 kg/m^3. For each solution six containers were prepared each containing five specimens. Half of the specimens in each solution were end sealed at both ends using Conclad 300 2-K membrane (product no. 5305A, Condor Kemi A/S, Denmark). The end seal was applied to evaluate the radial leaching of the impregnating agent in order to simulate the surfaces exposed in harbour piers.
The specimens were placed in the containers and 500 ml of sea water solution was added to each container.
After one week the water was collected and analysed for EDDS content by HPLC-UV; detection at 254 nm. The method used involved a reverse phase column and online complexing of EDDS with Cu(II)-ions. Quantifications were made from external standards (reference material used was “−30% Na3EDDS in water” from Fluka).

[2] = system: marine woodborers; assay: Protective effectiveness against marine borers, EN 275 harbour exposure; format: in vivo, shipworm; settings: 6 months; compared to control subjects
Experimental: The guidelines and recommendations in EN 275: 1992—Wood preservatives—Determination of the protective effectiveness against marine borers were followed unless otherwise stated.
Wood specimens were made of sapwood of Pinus sylvestris in the dimensions: 200×75×25 mm3, with a hole ø25 mm in the centre. The specimens were produced by the Danish Technological Institute.
The biocide-impregnating solution was prepared in different compositions according to Table 4. pH was adjusted with hydrochloric acid, and 10 specimens were used for each composition of biocide-impregnating solution and each harbour exposure site.
The specimens were attached to test racks and placed in two different harbours in Denmark: Skagen (northern part of Jutland) and Rudkøbing (Langeland) on 26 and 24 Apr. 2007, respectively (FIG. 1). The specimens were collected again ˜6 months later on 23 and 25 Oct. 2007, respectively.
The attack by marine borers was evaluated by cutting up the specimen in five pieces and recording the number of borers present and the percentage of the area which they had attacked.

O=C(O)C[C@H](NCCN[C@@H](CC(=O)O)C(=O)O)C(=O)O [EDDS, (S,S)-ethylenediamine-disuccinate]
Leaching ([1]; all sea water solutions, in seven days): about 30% | Leaching from end sealed specimens compared with specimens without end sealing ([1]; all three types of sea water): significantly lower | Leaching of EDDS, specimen with end sealing ([1]; sea water normal conc.): 26.48 ± 0.92% | Leaching of EDDS, specimen without end sealing ([1]; sea water normal conc.): 33.56 ± 0.62% | Leaching of EDDS, specimen with end sealing ([1]; sea water ½ conc. pH 6): 30.07 ± 0.70% | Leaching of EDDS, specimen without end sealing ([1]; sea water ½ conc. pH 6): 36.14 ± 0.89% | Leaching of EDDS, specimen with end sealing ([1]; sea water ½ conc.): 32.08 ± 1.01% | Leaching of EDDS, specimen without end sealing ([1]; sea water ½ conc.): 34.08 ± 0.59% | Effectiveness against attack of shipworm [2]: effective
